Results reported in patent publication US10131652B2, “Pyrimidinyloxy benzene derivatives as herbicides” (E. I. DU PONT DE NEMOURS AND COMPANY, priority 2014, dated 2018).

Key:
Format in all cases: in vivo
[1] = tested on: Italian ryegrass (Lolium multiflorum); assay: Test B pre-/postemergence plant response; details: 1000 g ai/ha, 0 to 100 scale (0 no effect, 100 complete control)
Summary of the method: (§1)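 Visual injury scores on a 0–100 scale (100 = complete control) relative to untreated plants, taken about 10 days post-treatment in greenhouse. Treatments were a directed preemergence soil spray and a postemergence spray at one- to two-leaf stage, using surfactant-containing solvent formulation.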

kochia (Kochia scoparia) = assay: Test B pre-/postemergence plant response; details: 1000 g ai/ha, 0 to 100 scale (0 no effect, 100 complete control)
Summary of the method: as §1

[2] = tested on: ragweed (common ragweed, Ambrosia elatior); assay: Test B pre-/postemergence plant response; details: 1000 g ai/ha, 0 to 100 scale (0 no effect, 100 complete control)
Summary of the method: as §1

[3] = tested on: Italian ryegrass (Lolium multiflorum); assay: Test D pre-/postemergence plant response
Summary of the method: (§2)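 0 = no effect, 100 = complete control: plants were scored this way by visual comparison with controls 13 to 15 days post-treatment. Application was preemergence to sown loam/sand pots or postemergence to 2–18 cm seedlings in peat-based mix.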

[4] = tested on: barnyardgrass (Echinochloa crus-galli); assay: Test D pre-/postemergence plant response
Summary of the method: as §2

[5] = tested on: blackgrass (Alopecurus myosuroides); assay: Test D pre-/postemergence plant response
Summary of the method: as §2

corn (Zea mays) = assay: Test D pre-/postemergence plant response
Summary of the method: as §2

[6] = tested on: galium (catchweed bedstraw, Galium aparine); assay: Test D pre-/postemergence plant response
Summary of the method: as §2

[7] = tested on: giant foxtail (Setaria faberii); assay: Test D pre-/postemergence plant response
Summary of the method: as §2

[8] = tested on: large (Lg) crabgrass (Digitaria sanguinalis); assay: Test D pre-/postemergence plant response
Summary of the method: as §2

[9] = tested on: oilseed rape (Brassica napus); assay: Test D pre-/postemergence plant response
Summary of the method: as §2

[10] = tested on: pigweed (Amaranthus retroflexus); assay: Test D pre-/postemergence plant response
Summary of the method: as §2

[11] = tested on: ragweed (common ragweed, Ambrosia elatior); assay: Test D pre-/postemergence plant response
Summary of the method: as §2

[12] = tested on: yellow nutsedge (Cyperus esculentus); assay: Test D pre-/postemergence plant response
Summary of the method: as §2

[13] = Postemergence, 16 g ai/ha, scale 0 to 100 (0 no effect, 100 complete control)
[14] = Postemergence, 31 g ai/ha, scale 0 to 100 (0 no effect, 100 complete control)
[15] = Postemergence, 62 g ai/ha, scale 0 to 100, 0 no effect, 100 complete control
[16] = Postemergence, 125 g ai/ha, scale 0 to 100, 0 no effect, 100 complete control
[17] = Preemergence, 16 g ai/ha, scale 0 to 100 (0 no effect, 100 complete control)
[18] = Preemergence, 31 g ai/ha, scale 0 to 100 (0 no effect, 100 complete control)
[19] = Preemergence, 62 g ai/ha, scale 0 to 100 (0 no effect, 100 complete control)

With FCc1cc(-c2c(F)cccc2Oc2ncc(Cl)cn2)no1 [Compound 57] the “Plant response rating, Ryegrass, Italian” value ([1]; Postemergence) was 80, the “Plant response rating, Ryegrass, Italian” value ([1]; Preemergence) was 80 and the “Plant response rating, Kochia” value (kochia (Kochia scoparia); Postemergence) was 90. The “Plant response rating, Kochia” value (kochia (Kochia scoparia); Preemergence) was 100, the “Plant response rating, Ragweed” value ([2]; Postemergence) was 100 and the “Plant response rating, Ragweed” value ([2]; Preemergence) was 90. For the same compound, the “Ryegrass, Italian plant response rating” value [3, 13] was 0, the “Ryegrass, Italian plant response rating” value [3, 14] was 0 and the “Plant response rating, Ryegrass, Italian” value [3, 15] was 0. The “Plant response rating, Ryegrass, Italian” value [3, 16] was 0, the “Plant response rating (scale 0 to 100), Ryegrass, Italian” value ([3]; Preemergence, 125 g ai/ha) was 50 and the “Plant response rating, Ryegrass, Italian” value [3, 17] was 0. For the same compound, the “Plant response rating, Ryegrass, Italian” value [3, 18] was 0, the “Plant response rating, Ryegrass, Italian” value [3, 19] was 5 and the “Barnyardgrass plant response rating” value [4, 13] was 0. The “Barnyardgrass plant response rating” value [4, 14] was 5, the “Plant response rating, Barnyardgrass” value [4, 15] was 5 and the “Plant response rating, Barnyardgrass” value [4, 16] was 10. For the same compound, the “Plant response rating (scale 0 to 100), Barnyardgrass” value ([4]; Preemergence, 62 g ai/ha) was 75, the “Plant response rating (scale 0 to 100), Barnyardgrass” value ([4]; Preemergence, 125 g ai/ha) was 85 and the “Plant response rating, Barnyardgrass” value [4, 17] was 5. The “Plant response rating, Barnyardgrass” value [4, 18] was 20, the “Blackgrass plant response rating” value [5, 13] was 0 and the “Blackgrass plant response rating” value [5, 14] was 0. The “Plant response rating, Blackgrass” value [5, 15] was 0, the “Plant response rating, Blackgrass” value [5, 16] was 15 and the “Plant response rating (scale 0 to 100), Blackgrass” value ([5]; Preemergence, 125 g ai/ha) was 60. For the same compound, the “Plant response rating, Blackgrass” value [5, 17] was 5, the “Plant response rating, Blackgrass” value [5, 18] was 5 and the “Plant response rating, Blackgrass” value [5, 19] was 50. For the same compound, the “Corn plant response rating” value (corn (Zea mays); [13]) was 0, the “Corn plant response rating” value (corn (Zea mays); [14]) was 5 and the “Plant response rating, Corn” value (corn (Zea mays); [15]) was 5. The “Plant response rating, Corn” value (corn (Zea mays); [16]) was 10, the “Plant response rating (scale 0 to 100), Corn” value (corn (Zea mays); Preemergence, 125 g ai/ha) was 30 and the “Plant response rating, Corn” value (corn (Zea mays); [17]) was 0. The “Plant response rating, Corn” value (corn (Zea mays); [18]) was 0, the “Plant response rating, Corn” value (corn (Zea mays); [19]) was 5 and the “Galium plant response rating” value [6, 13] was 40. The “Galium plant response rating” value [6, 14] was 50, the “Plant response rating, Galium” value [6, 15] was 65 and the “Plant response rating, Galium” value [6, 16] was 95. The “Plant response rating (scale 0 to 100), Galium” value ([6]; Preemergence, 125 g ai/ha) was 90, the “Plant response rating, Galium” value [6, 17] was 80 and the “Plant response rating, Galium” value [6, 18] was 70. For the same compound, the “Plant response rating, Galium” value [6, 19] was 90, the “Foxtail, Giant plant response rating” value [7, 13] was 0 and the “Foxtail, Giant plant response rating” value [7, 14] was 10. The “Plant response rating, Foxtail, Giant” value [7, 15] was 20, the “Plant response rating, Foxtail, Giant” value [7, 16] was 20 and the “Plant response rating (scale 0 to 100), Foxtail, Giant” value ([7]; Preemergence, 125 g ai/ha) was 100. The “Plant response rating, Foxtail, Giant” value [7, 17] was 50, the “Plant response rating, Foxtail, Giant” value [7, 18] was 90 and the “Plant response rating, Foxtail, Giant” value [7, 19] was 100. The “Crabgrass, Large plant response rating” value [8, 13] was 5, the “Crabgrass, Large plant response rating” value [8, 14] was 5 and the “Plant response rating, Crabgrass, Large” value [8, 15] was 10. The “Plant response rating, Crabgrass, Large” value [8, 16] was 10, the “Plant response rating (scale 0 to 100), Crabgrass, Large” value ([8]; Preemergence, 125 g ai/ha) was 100 and the “Plant response rating, Crabgrass, Large” value [8, 17] was 75. The “Plant response rating, Crabgrass, Large” value [8, 18] was 85, the “Plant response rating, Crabgrass, Large” value [8, 19] was 100 and the “Oilseed Rape plant response rating” value [9, 13] was 30. For the same compound, the “Oilseed Rape plant response rating” value [9, 14] was 55, the “Plant response rating, Oilseed Rape” value [9, 15] was 75 and the “Plant response rating, Oilseed Rape” value [9, 16] was 90. The “Plant response rating (scale 0 to 100), Oilseed Rape” value ([9]; Preemergence, 125 g ai/ha) was 100, the “Plant response rating, Oilseed Rape” value [9, 17] was 100 and the “Plant response rating, Oilseed Rape” value [9, 18] was 100. For the same compound, the “Plant response rating, Oilseed Rape” value [9, 19] was 100, the “Pigweed plant response rating” value [10, 13] was 30 and the “Pigweed plant response rating” value [10, 14] was 55. For the same compound, the “Plant response rating, Pigweed” value [10, 15] was 55, the “Plant response rating, Pigweed” value [10, 16] was 75 and the “Plant response rating (scale 0 to 100), Pigweed” value ([10]; Preemergence, 125 g ai/ha) was 100. The “Plant response rating, Pigweed” value [10, 17] was 75, the “Plant response rating, Pigweed” value [10, 18] was 85 and the “Plant response rating, Pigweed” value [10, 19] was 100. For the same compound, the “Ragweed plant response rating” value [11, 13] was 20, the “Ragweed plant response rating” value [11, 14] was 50 and the “Plant response rating, Ragweed” value [11, 15] was 60. The “Plant response rating, Ragweed” value [11, 16] was 98, the “Plant response rating (scale 0 to 100), Ragweed” value ([11]; Preemergence, 125 g ai/ha) was 100 and the “Plant response rating, Ragweed” value [11, 17] was 25. The “Plant response rating, Ragweed” value [11, 18] was 35, the “Plant response rating, Ragweed” value [11, 19] was 100 and the “Nutsedge, Yellow plant response rating” value [12, 13] was 0. The “Nutsedge, Yellow plant response rating” value [12, 14] was 5, the “Plant response rating, Nutsedge, Yellow” value [12, 15] was 5 and the “Plant response rating, Nutsedge, Yellow” value [12, 16] was 5. The “Plant response rating (scale 0 to 100), Nutsedge, Yellow” value ([12]; Preemergence, 125 g ai/ha) was 20, the “Plant response rating, Nutsedge, Yellow” value [12, 17] was 0 and the “Plant response rating, Nutsedge, Yellow” value [12, 18] was 10. The “Plant response rating, Nutsedge, Yellow” value [12, 19] was 20.
